# Experimental data reported in PMC6915745, “TRIB3 supports breast cancer stemness by suppressing FOXO1 degradation and enhancing SOX2 transcription” (Nature Communications, 2019).
# Entries after “also recorded” stand apart in the source; their conditions may differ.
# Key:
# TRIB3 [1] = experiment: TRIB3 expression after IL-6, MDA-MB-231 cells (WB); format: cell-based; conditions: various IL-6 concentrations 8 hr, or 10 ng/ml IL-6 for different times
# Protocol: Cycloheximide (CHX; Sigma Aldrich, R750107) was used as a protein synthesis inhibitor to assess the stability of the existing proteins. To assess protein stability, cells were treated with 20 μM CHX and the proteasome inhibitor MG132 (Sigma Aldrich, R750107) at 10 μM or the autophagy inhibitor BAF (Sigma Aldrich, B1793) at 200 nM for the indicated times. Protein expression was assessed via immunoblot analysis with cell lysates (20–60 μg) prepared in RIPA lysis buffer containing protease inhibitors (Roche) using anti-SOX2 (3529), anti-NANOG (4903), anti-OCT4 (2750), anti-KLF4 (4038), anti-c-Myc (13987), anti-FOXO1 (2880), anti-p-FOXO1 (9461), anti-AKT (4685), anti-p-AKT (4060), anti-β-ACTIN (4970), anti-Ubiquitin (3936), or anti-LaminA/C (4777) antibodies from CST; anti-TRIB3 antibody (ab75846) from Abcam; and anti-Trib3 antibody (PA5-15480) from Thermo Fisher Scientific[59]. […] The protein concentrations were determined by BCA Protein Assay Kits (Pierce). […]
# (GSE12790). Relative amounts of TRIB3 transcripts were measured using the 205805_s_at probe. […]
# levels of TRIB3 mRNA. Metastasis-free survival was determined by Kaplan–Meier analyses, and
# significant differences were determined by log-rank tests. […]
# 24 hr, glucose deprivation (DG) for 12 hr, and high glucose (HG) for 24 hr was detected by Western […]
# 8 hr (f) or 10 ng/ml IL-6 for different amounts of time (g) was detected by WB. […]
# MCF7 cells [2] = experiment: Mammosphere (tumorsphere) formation, MCF7 cells; format: cell-based, human; conditions: one week of IL-6, serum-free spheroid suspension culture
# MCF7 cells [3] = experiment: TRIB3/AKT/FOXO1/SOX2 axis after IL-6, CoCl2 or high glucose, MCF7 cells (WB); format: cell-based, human; conditions: MCF7 cells, IL-6 12 hr, high glucose 24 hr, WB
# TRIB3 [4] = experiment: TRIB3 expression after cytokines or stressors, MCF7 cells (WB); format: cell-based, human
# Protocol: Cycloheximide (CHX; Sigma Aldrich, R750107) was used as a protein synthesis inhibitor to assess the stability of the existing proteins. To assess protein stability, cells were treated with 20 μM CHX and the proteasome inhibitor MG132 (Sigma Aldrich, R750107) at 10 μM or the autophagy inhibitor BAF (Sigma Aldrich, B1793) at 200 nM for the indicated times. Protein expression was assessed via immunoblot analysis with cell lysates (20–60 μg) prepared in RIPA lysis buffer containing protease inhibitors (Roche) using anti-SOX2 (3529), anti-NANOG (4903), anti-OCT4 (2750), anti-KLF4 (4038), anti-c-Myc (13987), anti-FOXO1 (2880), anti-p-FOXO1 (9461), anti-AKT (4685), anti-p-AKT (4060), anti-β-ACTIN (4970), anti-Ubiquitin (3936), or anti-LaminA/C (4777) antibodies from CST; anti-TRIB3 antibody (ab75846) from Abcam; and anti-Trib3 antibody (PA5-15480) from Thermo Fisher Scientific[59]. All antibodies were used at 1:1000 dilution, with the exception of anti-β-Actin antibodies, which were used at 1:2000 dilution. The protein concentrations were determined by BCA Protein Assay Kits (Pierce). Proteins were separated by SDS-polyacrylamide gel electrophoresis (PAGE) and transferred to polyvinylidene difluoride membrane. […]
# (f, g) The expression of
# TRIB3 in MCF7 cells (top) or MDA-MB-231 cells (bottom) treated with various concentrations of IL6 for
# 8 hr (f) or 10 ng/ml IL-6 for different amounts of time (g) was detected by WB. (h) Silencing TRIB3
# decreased the tumor sphere formation ability of MCF7 cells with or without IL-6 stimulation. […]
# Data are shown as the mean ± SEM; P>0.05 was considered not significant (N.S.); *P<0.05, **P<0.01
# and ***P<0.001, compared with the con group in panels d-f. Source data are provided as a Source Data
# TRIB3 [5] = experiment: Relative TRIB3 mRNA in control or FOXO1-silenced MCF7 cells after stressors; format: cell-based, human; conditions: FOXO1-shRNA MCF7 cells, in words
substance,measurement,setting,value
IL-6: cytokine interleukin (IL)-6,"TRIB3 expression, dose- and time-dependence",TRIB3 [1],enhanced TRIB3 expression in MCF7 and MDA-MB-231 cells in dose-
same,tumorsphere-formation ability,MCF7 cells [2],increased the tumorsphere-formation ability
same,expressions of FOXO1 and SOX2,MCF7 cells [3]; CoCl2 24 hr,enhance; also recorded: enhanced expressions of FOXO1 and SOX2
same,activity of FOXO1 S256,MCF7 cells [3],reduced the activity of FOXO1^S256
same,TRIB3 expression,"TRIB3 [4]; cytokines 8 hr, high glucose 24 hr",enhanced TRIB3 expression in MCF7 cells
same,"TRIB3 expression, dose- and time-dependence","TRIB3 [4]; various IL-6 concentrations 8 hr, or 10 ng/ml IL-6 for different times",enhanced TRIB3 expression in MCF7 and MDA-MB-231 cells in dose-
same,TRIB3 expression in FOXO1-silenced BCCs,TRIB3 [5],could enhance TRIB3 expression in FOXO1-silenced BCCs
